Measured values reported in ChEMBL document CHEMBL3885881, “DrugMatrix”.

Organism: Rattus norvegicus
Assay: DrugMatrix - Regimen: Daily Repeat
Format: toxicity, organism-based, Sprague-Dawley
Set-up: regimen Daily Repeat, gender Male, age 6-8 weeks
Conditions: in vivo, iv, […], dose 8.2 mg/Kg, dose level Low, vehicle 100 % SALINE; for ABSOLUTE BASOPHIL / ABSOLUTE EOSINOPHIL / ABSOLUTE LYMPHOCYTE / ABSOLUTE MONOCYTE / ABSOLUTE SEGMENTED NEUTROPHIL / BASOPHIL / EOSINOPHIL / ERYTHROCYTE COUNT / HEMATOCRIT / HEMOGLOBIN / LEUKOCYTE COUNT / LYMPHOCYTE / MEAN CORPUSCULAR HEMOGLOBIN / MEAN CORPUSCULAR HEMOGLOBIN CONCENTRATION / MEAN CORPUSCULAR VOLUME / MONOCYTE / NEUTROPHIL / NUCLEATED RED BLOOD CELLS / PLATELET COUNT: tissue Blood; for ALANINE AMINOTRANSFERASE / ALBUMIN / ALKALINE PHOSPHATASE / ASPARTATE AMINOTRANSFERASE / BLOOD UREA NITROGEN / CARBON DIOXIDE / CHLORIDE / CHOLESTEROL / CREATINE PHOSPHOKINASE / CREATININE / GLUCOSE / LACTATE DEHYDROGENASE / LIPASE / PHOSPHORUS / POTASSIUM / SODIUM / TOTAL BILIRUBIN / TOTAL PROTEIN / URIC ACID: tissue Plasma

[H]/N=C(/N)N[C@H]1[C@H](O)[C@@H](O)[C@H](O[C@@H]2O[C@@H](C)[C@](O)(C=O)[C@H]2O[C@@H]2O[C@@H](CO)[C@H](O)[C@@H](O)[C@@H]2NC)[C@@H](N/C(N)=N\[H])[C@@H]1O [STREPTOMYCIN]
ABSOLUTE BASOPHIL (72 h, time 3 day): 0 CELLS/uL | ABSOLUTE EOSINOPHIL (72 h, time 3 day): 0 CELLS/uL | ABSOLUTE LYMPHOCYTE (72 h, time 3 day): 16010 CELLS/uL | ABSOLUTE MONOCYTE (72 h, time 3 day): 231.33 CELLS/uL | ABSOLUTE SEGMENTED NEUTROPHIL (72 h, time 3 day): 1025.33 CELLS/uL | BASOPHIL (72 h, time 3 day): 0% | EOSINOPHIL (72 h, time 3 day): 0% | ERYTHROCYTE COUNT (72 h, time 3 day): 6.28 x10E6/uL | HEMATOCRIT (72 h, time 3 day): 40.03% | HEMOGLOBIN (72 h, time 3 day): 14.6 G/DL | LEUKOCYTE COUNT (72 h, time 3 day): 17.27 x10E3/uL | LYMPHOCYTE (72 h, time 3 day): 92.67% | MEAN CORPUSCULAR HEMOGLOBIN (72 h, time 3 day): 23.33 pg | MEAN CORPUSCULAR HEMOGLOBIN CONCENTRATION (72 h, time 3 day): 36.47 G/DL | MEAN CORPUSCULAR VOLUME (72 h, time 3 day): 63.9 fL | MONOCYTE (72 h, time 3 day): 1.33% | NEUTROPHIL (72 h, time 3 day): 6% | NUCLEATED RED BLOOD CELLS (72 h, time 3 day): 0 /100WBC | PLATELET COUNT (72 h, time 3 day): 1313.67 x10E3/uL | ALANINE AMINOTRANSFERASE (72 h, time 3 day): 51.67 u/L | ALBUMIN (72 h, time 3 day): 4.5 G/DL | ALKALINE PHOSPHATASE (72 h, time 3 day): 417.33 u/L | ASPARTATE AMINOTRANSFERASE (72 h, time 3 day): 82.67 u/L | BLOOD UREA NITROGEN (72 h, time 3 day): 13.67 mg/dL | CARBON DIOXIDE (72 h, time 3 day): 23 mmol/L | CHLORIDE (72 h, time 3 day): 105.33 MEQ/L | CHOLESTEROL (72 h, time 3 day): 84 mg/dL | CREATINE PHOSPHOKINASE (72 h, time 3 day): 198.33 u/L | CREATININE (72 h, time 3 day): 0.22 mg/dL | GLUCOSE (72 h, time 3 day): 155.33 mg/dL | LACTATE DEHYDROGENASE (72 h, time 3 day): 234 u/L | LIPASE (72 h, time 3 day): 9 u/L | PHOSPHORUS (72 h, time 3 day): 14.77 mg/dL | POTASSIUM (72 h, time 3 day): 7.14 MEQ/L | SODIUM (72 h, time 3 day): 148.8 MEQ/L | TOTAL BILIRUBIN (72 h, time 3 day): 0.2 mg/dL | TOTAL PROTEIN (72 h, time 3 day): 6.33 G/DL | URIC ACID (72 h, time 3 day): 2.1 mg/dL | ABSOLUTE BASOPHIL (120 h, time 5 day): 0 CELLS/uL | ABSOLUTE EOSINOPHIL (120 h, time 5 day): 277 CELLS/uL | ABSOLUTE LYMPHOCYTE (120 h, time 5 day): 11716.67 CELLS/uL | ABSOLUTE MONOCYTE (120 h, time 5 day): 225 CELLS/uL | ABSOLUTE SEGMENTED NEUTROPHIL (120 h, time 5 day): 1048 CELLS/uL | BASOPHIL (120 h, time 5 day): 0% | EOSINOPHIL (120 h, time 5 day): 2% | ERYTHROCYTE COUNT (120 h, time 5 day): 5.69 x10E6/uL | HEMATOCRIT (120 h, time 5 day): 36.1% | HEMOGLOBIN (120 h, time 5 day): 13.83 G/DL | LEUKOCYTE COUNT (120 h, time 5 day): 13.27 x10E3/uL | LYMPHOCYTE (120 h, time 5 day): 88.67% | MEAN CORPUSCULAR HEMOGLOBIN (120 h, time 5 day): 24.27 pg | MEAN CORPUSCULAR HEMOGLOBIN CONCENTRATION (120 h, time 5 day): 38.33 G/DL | MEAN CORPUSCULAR VOLUME (120 h, time 5 day): 63.43 fL | MONOCYTE (120 h, time 5 day): 1.67% | NEUTROPHIL (120 h, time 5 day): 7.67% | NUCLEATED RED BLOOD CELLS (120 h, time 5 day): 0 /100WBC | PLATELET COUNT (120 h, time 5 day): 1319.67 x10E3/uL | ALANINE AMINOTRANSFERASE (120 h, time 5 day): 44 u/L | ALBUMIN (120 h, time 5 day): 4.43 G/DL | ALKALINE PHOSPHATASE (120 h, time 5 day): 308.33 u/L | ASPARTATE AMINOTRANSFERASE (120 h, time 5 day): 87.33 u/L | BLOOD UREA NITROGEN (120 h, time 5 day): 20.67 mg/dL | CARBON DIOXIDE (120 h, time 5 day): 24.33 mmol/L | CHLORIDE (120 h, time 5 day): 106.67 MEQ/L | CHOLESTEROL (120 h, time 5 day): 58.67 mg/dL | CREATINE PHOSPHOKINASE (120 h, time 5 day): 307 u/L | CREATININE (120 h, time 5 day): 0.18 mg/dL | GLUCOSE (120 h, time 5 day): 143 mg/dL | LACTATE DEHYDROGENASE (120 h, time 5 day): 514.33 u/L | LIPASE (120 h, time 5 day): 9 u/L | PHOSPHORUS (120 h, time 5 day): 12.6 mg/dL | POTASSIUM (120 h, time 5 day): 6.63 MEQ/L | SODIUM (120 h, time 5 day): 147.1 MEQ/L | TOTAL BILIRUBIN (120 h, time 5 day): 0.17 mg/dL | TOTAL PROTEIN (120 h, time 5 day): 6.27 G/DL | URIC ACID (120 h, time 5 day): 1.5 mg/dL
